Where “and” joins values, the source holds several entries; their conditions need not be identical. Equal entries are not always repeated. Toxic doses and inconclusive results are not listed. How the source made its calls: active means survival T/C of 150% or more; inactive means T/C below 125% in these data.
Test system: CD2F1 mice, L1210 leukemia ip, survival T/C
Assay: NCI In Vivo Anticancer Drug Screen. Data for tumor model L1210 Leukemia (intraperitoneal) in CD2F1 (CDF1) mice
Settings: higher = longer survival
Summary of the method: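 Each value reflects a quotient of treated over vehicle control outcomes in mice with a transplanted tumor.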

[1] = endpoint: mean survival time, dose: 50.0 mg/kg/injection, schedule: Q01DX009 (ip), vehicle: saline with Tween-80
[2] = endpoint: mean survival time, dose: 100.0 mg/kg/injection, schedule: Q01DX009 (ip), vehicle: saline with Tween-80
[3] = endpoint: mean survival time, dose: 100.0 mg/kg/injection, schedule: Q04DX003 (ip), vehicle: saline with Tween-80
[4] = endpoint: mean survival time, dose: 200.0 mg/kg/injection, schedule: Q04DX003 (ip), vehicle: saline with Tween-80
[5] = endpoint: mean survival time, dose: 400.0 mg/kg/injection, schedule: Q04DX003 (ip), vehicle: saline with Tween-80
[6] = endpoint: mean survival time, dose: 25.0 mg/kg/injection, schedule: Q04DX002 (ip), vehicle: saline with Tween-80

Measured: T/C

O=C(O)Cc1ccccc1C(=O)O.[Pb]
inactive: [1] 102 % of control | [2] 102 % of control | [3] 93 % of control | [4] 98 % of control

CC(=O)OC1C=C2CCC3C(CCC4(C)C(OC(C)=O)CCC34)C2(C)CC1 (configuration not stated)
inactive: endpoint: mean survival time, dose: 12.5 mg/kg/injection, schedule: Q04DX003 (ip), vehicle: Klucel (hydroxypropylcellulose) (HPC) 106 % of control | endpoint: mean survival time, dose: 25.0 mg/kg/injection, schedule: Q04DX003 (ip), vehicle: Klucel (hydroxypropylcellulose) (HPC) 103 % of control | endpoint: mean survival time, dose: 50.0 mg/kg/injection, schedule: Q04DX003 (ip), vehicle: Klucel (hydroxypropylcellulose) (HPC) 106 % of control

COc1cc2c3cc1Oc1c(OC)c(OC)cc4c1[C@@H](Cc1ccc(O)c(c1)Oc1ccc(cc1)C[C@@H]3N(C)CC2)N(C)CC4
inactive: endpoint: mean survival time, dose: 75.0 mg/kg/injection, schedule: Q01DX001 (ip), vehicle: other 96 % of control | endpoint: mean survival time, dose: 150.0 mg/kg/injection, schedule: Q01DX001 (ip), vehicle: other 100 % of control

O=NNc1ccc(Cl)cn1
inactive: endpoint: median survival time, dose: 1.5 mg/kg/injection, schedule: Q01DX009 (ip), vehicle: water 110 % of control | endpoint: median survival time, dose: 1.56 mg/kg/injection, schedule: Q01DX009 (ip), vehicle: water 104 % of control | endpoint: median survival time, dose: 3.0 mg/kg/injection, schedule: Q01DX009 (ip), vehicle: water 114 % of control | endpoint: median survival time, dose: 3.12 mg/kg/injection, schedule: Q01DX009 (ip), vehicle: water 117 % of control | endpoint: median survival time, dose: 6.0 mg/kg/injection, schedule: Q01DX009 (ip), vehicle: water 119 % of control | endpoint: median survival time, dose: 12.5 mg/kg/injection, schedule: Q01DX009 (ip), vehicle: water 104 % of control | endpoint: median survival time, dose: 24.0 mg/kg/injection, schedule: Q01DX009 (ip), vehicle: water 107 % of control

COC1=C(N)C(=O)c2nc(-c3nc(C(=O)O)c(C)c(-c4ccc(OC)c(OC)c4O)c3N)ccc2C1=O
inactive: endpoint: mean survival time, dose: 0.25 mg/kg/injection, schedule: Q01DX009 (ip), vehicle: saline with Tween-80 117 % of control | endpoint: mean survival time, dose: 0.5 mg/kg/injection, schedule: Q01DX009 (ip), vehicle: saline with Tween-80 100 % of control | endpoint: mean survival time, dose: 0.5 mg/kg/injection, schedule: Q04DX003 (ip), vehicle: saline with Tween-80 118 % of control | endpoint: mean survival time, dose: 1.0 mg/kg/injection, schedule: Q04DX003 (ip), vehicle: saline with Tween-80 105 % of control

CC(=O)NN1C(=O)c2ccccc2C1=O
inactive: endpoint: mean survival time, dose: 100.0 mg/kg/injection, schedule: Q04DX003 (ip), vehicle: Klucel (hydroxypropylcellulose) (HPC) 98 % of control | endpoint: mean survival time, dose: 200.0 mg/kg/injection, schedule: Q04DX003 (ip), vehicle: Klucel (hydroxypropylcellulose) (HPC) 98 % of control | endpoint: mean survival time, dose: 400.0 mg/kg/injection, schedule: Q04DX003 (ip), vehicle: Klucel (hydroxypropylcellulose) (HPC) 98 % of control

Cn1cnc([N+](=O)[O-])c1SCC(=O)O
inactive: endpoint: mean survival time, dose: 12.5 mg/kg/injection, schedule: Q01DX009 (ip), vehicle: saline with Tween-80 95 % of control | endpoint: mean survival time, dose: 12.5 mg/kg/injection, schedule: Q01DX009 (ip), vehicle: saline 109 % of control | endpoint: mean survival time, dose: 25.0 mg/kg/injection, schedule: Q01DX009 (ip), vehicle: saline with Tween-80 98 % of control | endpoint: mean survival time, dose: 25.0 mg/kg/injection, schedule: Q01DX009 (ip), vehicle: saline 112 % of control | [1] 95 % of control | endpoint: mean survival time, dose: 50.0 mg/kg/injection, schedule: Q01DX009 (ip), vehicle: saline 109 % of control | [2] 98 % of control | endpoint: mean survival time, dose: 100.0 mg/kg/injection, schedule: Q01DX009 (ip), vehicle: saline 101 % of control | endpoint: mean survival time, dose: 200.0 mg/kg/injection, schedule: Q01DX009 (ip), vehicle: saline with Tween-80 104 % of control | endpoint: mean survival time, dose: 200.0 mg/kg/injection, schedule: Q01DX009 (ip), vehicle: saline 104 % of control | endpoint: mean survival time, dose: 400.0 mg/kg/injection, schedule: Q01DX009 (ip), vehicle: saline with Tween-80 98 % of control | endpoint: mean survival time, dose: 400.0 mg/kg/injection, schedule: Q01DX009 (ip), vehicle: saline 109 % of control

CSc1ncnc2cn(C3OC(CO)C(O)C3O)nc12 (configuration not stated)
inactive: endpoint: mean survival time, dose: 6.25 mg/kg/injection, schedule: Q01DX005 (ip), vehicle: water 96 % of control | endpoint: mean survival time, dose: 12.5 mg/kg/injection, schedule: Q01DX005 (ip), vehicle: water 100 % of control | endpoint: mean survival time, dose: 25.0 mg/kg/injection, schedule: Q01DX005 (ip), vehicle: water 114 % of control | endpoint: mean survival time, dose: 50.0 mg/kg/injection, schedule: Q01DX005 (ip), vehicle: water 92 % of control | endpoint: mean survival time, dose: 100.0 mg/kg/injection, schedule: Q01DX005 (ip), vehicle: water 100 % of control | endpoint: mean survival time, dose: 200.0 mg/kg/injection, schedule: Q01DX005 (ip), vehicle: water 86 % of control

O=c1n(-c2ccccc2)c(=O)n2n1C1C=CC2C2CC2/C=C\1 (configuration not stated)
inactive: endpoint: median survival time, dose: 50.0 mg/kg/injection, schedule: Q04DX002 (ip), vehicle: saline with Tween-80 112 % of control | endpoint: median survival time, dose: 100.0 mg/kg/injection, schedule: Q04DX002 (ip), vehicle: saline with Tween-80 112 % of control | endpoint: median survival time, dose: 200.0 mg/kg/injection, schedule: Q04DX002 (ip), vehicle: saline with Tween-80 87 % of control

N#Cc1cn(C2CCCCC2)c2[nH]c(=O)cc(O)c12
inactive: endpoint: mean survival time, dose: 100.0 mg/kg/injection, schedule: Q04DX003 (ip), vehicle: saline 97 % of control | endpoint: mean survival time, dose: 200.0 mg/kg/injection, schedule: Q04DX003 (ip), vehicle: saline 101 % of control | endpoint: mean survival time, dose: 400.0 mg/kg/injection, schedule: Q04DX003 (ip), vehicle: saline 121 % of control

CCOC(=O)C1=C(C)NC(C)=C(C(=O)OCC)C1C
inactive: endpoint: mean survival time, dose: 50.0 mg/kg/injection, schedule: Q04DX003 (ip), vehicle: saline with Tween-80 98 % of control and 100 % of control | [3] 101 % of control and 103 % of control and 108 % of control | [4] 95 % of control and 98 % of control and 104 % of control | [5] 122 % of control

O=c1[nH]cc(NCCCc2ccccc2)c(=O)[nH]1
inactive: [3] 102 % of control | [4] 104 % of control | [5] 96 % of control

C[N+](C)(C)C.[Cl-].[Cl-].[Cl][Sn]([Cl])[Cl].[Cl][Sn]([Cl])[Cl].[Ru+]
inactive: [6] 107 % of control | endpoint: mean survival time, dose: 50.0 mg/kg/injection, schedule: Q04DX002 (ip), vehicle: saline with Tween-80 96 % of control

CCCCCCCCCCCCCCCCNS(=O)(=O)c1ccc2sc(SC)nc2c1
inactive: endpoint: mean survival time, dose: 12.5 mg/kg/injection, schedule: Q04DX002 (ip), vehicle: saline with Tween-80 93 % of control | [6] 93 % of control

CC(=O)Oc1cccc2c1C(=O)c1c(OC(C)=O)cc(C)cc1C2=O
inactive: endpoint: mean survival time, dose: 100.0 mg/kg/injection, schedule: Q01DX001 (ip), vehicle: saline 101 % of control | endpoint: mean survival time, dose: 200.0 mg/kg/injection, schedule: Q01DX001 (ip), vehicle: saline 101 % of control | endpoint: mean survival time, dose: 400.0 mg/kg/injection, schedule: Q01DX001 (ip), vehicle: saline 98 % of control

C=C1C(=O)C2=CC1CCC(=O)C1(C)CCC(OC(C)=O)C(C)(C)C1CC2O (configuration not stated)
inactive: endpoint: mean survival time, dose: 3.75 mg/kg/injection, schedule: Q01DX009 (ip), vehicle: Klucel (hydroxypropylcellulose) (HPC) 97 % of control | endpoint: mean survival time, dose: 7.5 mg/kg/injection, schedule: Q01DX009 (ip), vehicle: Klucel (hydroxypropylcellulose) (HPC) 98 % of control and 100 % of control | endpoint: mean survival time, dose: 15.0 mg/kg/injection, schedule: Q01DX009 (ip), vehicle: Klucel (hydroxypropylcellulose) (HPC) 95 % of control and 98 % of control | endpoint: mean survival time, dose: 30.0 mg/kg/injection, schedule: Q01DX009 (ip), vehicle: Klucel (hydroxypropylcellulose) (HPC) 98 % of control and 101 % of control | endpoint: mean survival time, dose: 60.0 mg/kg/injection, schedule: Q01DX009 (ip), vehicle: Klucel (hydroxypropylcellulose) (HPC) 95 % of control and 96 % of control | endpoint: mean survival time, dose: 120.0 mg/kg/injection, schedule: Q01DX009 (ip), vehicle: Klucel (hydroxypropylcellulose) (HPC) 89 % of control

— PubChem BioAssay AID256 (DTP/NCI, 2004)
